The record followed here is patent publication US8268849B2, “Multifunctional Antioxidants and methods of use thereof” (priority 2007, dated 2012).

Data set [1] in a line: Chelation study by ESI-MS, Fe^3+ solution. Type of data set: binding. The note with it: 10:1 metal:compound, 45 minutes of mixing. How it is done: (§1) The relative amount of ions bound by JHX-1-JHX-8 was determined by electrospray ionization mass spectrometry (ESI-MS) according to the method of Baron and Hering (Baron and Hering (1998) Spectrometry J. Environ. Qual., 27:844-850). In this method solutions containing Fe^2+, Fe^3+, Cu^1+, Cu^2+, Zn^2+, Ca^2+, Mg^2+ were mixed with compound in ratios of 10:1, 1:1, and 1:10. After 45 minutes of mixing, each solution was directly infused into the MS with constant ionization energy and the relative decreases of the parent peaks in these solutions were determined. […] FIG. 3 illustrates ion binding with increased Fe^+2 concentrations results in decreased compound parent peak heights by ESI-MS when compounds contain appropriate functional groups for metal ion chelation.

Data set [2] is described as follows: Chelation study by ESI-MS, Zn^2+ solution. Type of data set: binding. The note with it: 10:1 metal:compound, 45 minutes of mixing. The procedure:
as §1

Data set [3] in a line: Chelation study by ESI-MS, Ca^2+ solution. Format: binding. The note with it: 10:1 metal:compound, 45 minutes of mixing. The procedure: as §1
Data set [4] in a line: Chelation study by ESI-MS, Mg^2+ solution. Format: binding. The note with it: 10:1 metal:compound, 45 minutes of mixing. How it is done:
as §1

Data set [5] can be described thus: Chelation studies by ESI-MS, overall statement on ion binding. As to conditions: binding order Cu^1+=Cu^2+>Fe^2+=Fe^3+>Zn^2+; no binding with Ca^2+ or Mg^2+. The procedure:
as §1

For data set [6], the system named is SRA-1 human lens epithelial cells. The experiment in a line: ROS staining (H2DCF-DA) in lens epithelial cells. Format: cell-based. The note with it: 24 hour incubation, H2DCF-DA stain; for ROS staining, ROS generated by Fenton reaction: 0.1 mM Fe^2+ and 0.1 mM hydrogen peroxide; for ROS staining, ROS initiated by homocysteine: 10 mM homocysteine (ER stress). The procedure: The SRA-1 human lens epithelium cell line (Ibaraki et al. (1998) Exp. Eye Res., 67:577-85) was used to evaluate the antioxidant activity of JHX-1-8. These cells were cultured in DMEM media containing 10% fetal bovine serum (FBS), glutamine, NaHCO3, penicillin, and streptomycin at 37° C. in humidified atmosphere of 5% CO2 and 95% air until subconfluent (2-4 days). The cells were passaged when 80-90% confluent by treatment with trypsin-EDTA. The cells were plated at a density of 1×10^4 cells onto 96-well plates or 1×10^6 cells onto 100-mm dishes. ROS levels/effects in cells treated with JHX-1-8 were compared to similar cells treated with the water soluble Vitamin E derivative, Trolox (antioxidant control) or no drug (control).
The compounds were initially screened for antioxidant activity in 24 hour cultured SRA-1 human lens epithelial cells. Reactive oxygen species (ROS) in these cells were generated through both the Fenton reaction in which 0.1 mM Fe^2+ and 0.1 mM hydrogen peroxide were added to the culture media, or by culturing the lens with 10 mM homocysteine which induces endoplasmic reticular (ER) stress that results in the unfolded protein response (UPR) that subsequently generates the ROS. ROS were visualized with 2′,7′-dichlorodihydrofluorescein diacetate (DCF) staining. More specifically, after 24 hours of incubation, all cells were washed 2× with PBS and then incubated at room temperature for 1 hour with 10 μM H2DCF-DA (Invitrogen) stain. Fluorescent ROS staining was analyzed by quantifying pixel intensities of images obtained by fluorescent microscopy. As illustrated below in FIGS. 4A and 4B, compounds with chelating groups only produced a dose-dependent reduction in Fenton Reaction generated ROS. […] Indeed, homocysteine activates ER stress which subsequently initiates ROS through an Unfolded Protein Response (UPR).

The subject of data set [7] is diabetic cataract formation. The data set can be described thus: Cataract formation in diabetic rats. Format: in vivo. The note with it: for blood sugar / toxic effects: diabetic rats; for delay of vacuole formation / delay of cortical cataracts / lens sorbitol levels: streptozotocin diabetic rats; for delay of vacuole formation / delay of cortical cataracts: 0.025% in chow; for delay of vacuole formation: versus untreated diabetic group (14 days); for delay of cortical cataracts: versus untreated diabetic group (29 days); for lens sorbitol levels: end of study (47 days). The procedure: Diabetes was induced in 100 g Sprague Dawley rats with streptozotocin injection (75 mg/kg) and all rats with blood sugar levels >300 mg/dL were divided into 4 groups of 8 rats each. One group received only standard rat chow (untreated diabetic) while each of the other groups received chow containing either 0.0125% ARI Al1576, 0.025% JHX-4 or 0.025% JHX-8. Lens changes were monitored by at 3-5 day intervals by slit lamp following tropicamide mydriasis. As summarized in FIGS. 8A-8C, vacuole formation began by 14 days in the untreated diabetic group with cortical opacities observed by 29 days and mature cataracts by 44 days. […] In the two antioxidant treated groups, vacuole formation was delayed by 19 and 11 days by JHX-4 and JHX-8, respectively, and cortical cataracts by 9 and 3 days, respectively. At the end of the study (47 days) all rats were equally diabetic with HbA1C levels >11.9%. All eyes were enucleated and lens sorbitol levels were measured as previously described (Kador et al. (2007) J. Ocul. Pharmacol. Ther., 23:116-23). […] Tissue levels of JHX-4 and -8 in the lens, neural retina and brain were determined after 47 days of feeding as described above (FIG. 10). […] Overall drug levels in both the lens and retina were ca. 3-fold higher in the diabetic rats with brain levels also now present. This increase may be due to either an accumulation of drug, or increased permeability of tissues and the BBB to drug in streptozotocin diabetic rats (Mooradian et al. (2005) Diabetes, 54:2977-82).

In data set [8] the test system is lens opacities after whole head irradiation. Format: in vivo. As to conditions: for appearance of lens opacities / delay of lens PSC opacities / delay of the average (50% in all animals) formation of PSC punctuate opacities: 15 Gy whole head irradiation; for delay of lens PSC opacities / delay of the average (50% in all animals) formation of PSC punctuate opacities: compared to untreated rats, JHX 0.025 wt % in chow, Pantethine 1 g/kg i.p.; for toxic effects: irradiated rats. From the text: Cataracts were induced by whole head gamma irradiation in 24 male Long Evans (150-200 g) rats. […] Because of the amount of drug required for this long-term study, the percentage of JHX-4 and JHX-8 utilized was ½ of the dose used in the diabetic study. […] Gamma radiation (6000 Curie Cobalt-60 Source, UNMC Experimental Radiation Facility) was delivered to the whole head of unanesthetized, restrained rats at a dose rate of dose 0.341 Gy/minute for a total dose of 15 Gy. Lens changes were monitored every 7 days by portable slit lamp and recorded on a scale from 0-6 with 0: Clear, 1: Posterior subcapsular haze, 2: Spokes, suture enhancement and powdery posterior subcapsular deposits, 3: Prominent posterior subcapsular punctate opacities with spokes and suture enhancement, 4: Posterior subcapsular opacity blocks appearance of retinal vessels, 5: Start cortical involvement, 6: Total lens opacity, visible with naked eye. Since whole head irradiation results in a temporary loss of salivary gland function, all rats received Nutra-Gel (Bio-Serv) with/without JHX-4 or -8 for the first 66 days. Subsequently, all rats received standard rat chow with/without JHX-4 or -8.

Data set [9] can be described thus: Chow consumption, body weight and salivary gland protection after whole head irradiation. The note with it: for body weight after irradiation: 15 Gy whole head irradiation; for protection of the salivary gland: after whole head irradiation. Type of data set: in vivo, Long Evans rats. An excerpt:
Cataracts were induced by whole head gamma irradiation in 24 male Long Evans (150-200 g) rats. […] Because of the amount of drug required for this long-term study, the percentage of JHX-4 and JHX-8 utilized was ½ of the dose used in the diabetic study. […] Lens changes were monitored every 7 days by portable slit lamp and recorded on a scale from 0-6 with 0: Clear, 1: Posterior subcapsular haze, 2: Spokes, suture enhancement and powdery posterior subcapsular deposits, 3: Prominent posterior subcapsular punctate opacities with spokes and suture enhancement, 4: Posterior subcapsular opacity blocks appearance of retinal vessels, 5: Start cortical involvement, 6: Total lens opacity, visible with naked eye. […] Subsequently, all rats received standard rat chow with/without JHX-4 or -8.

For the compound `CN(C)S(=O)(=O)N1C(=O)CN(c2ncc(O)cn2)CC1=O` [JHX-4, 1-N,N′-dimethylsulfamoyl-4-(5-hydroxy-2-pyrimidyl)piperazine-2,6-dione], the “% Parent Peak Remaining at 10:1 Solution of Metal:Compound” value (“% Parent Peak Remaining at 10:1 Solution” for short) in data set [1] was determined as 8.2%. For the same compound, the “% Parent Peak Remaining at 10:1 Solution” value in data set [2] was 12.7%. Besides, the “% Parent Peak Remaining at 10:1 Solution” value in [3] is 100.0%. In addition, in data set [4], the “% Parent Peak Remaining at 10:1 Solution” value came to 100.0%. Also, the ion binding result in [5] was “bind ions”. In data set [6], the “ROS staining, ROS generated by Fenton reaction” value is reported as “protected against ROS” and the “ROS staining, ROS initiated by homocysteine” value is “reduced ROS staining similar to that with Trolox”. For the same compound, in [7], the blood sugar result was “did not alter”, the toxic effects entry is “No apparent toxic effects”, the “delay of vacuole formation” value came out at 19 days and the “delay of cortical cataracts” value was 9 days. The lens sorbitol levels entry in data set [7] is recorded as “did not alter”. Further, in data set [8], the “appearance of lens opacities” value is “delayed”, the “delay of lens PSC opacities” value stood at 38 days, the “delay of the average (50% in all animals) formation of PSC punctuate opacities” value was found to be 53 days and the toxic effects result is given as “No apparent toxic effects”. Further, in [9], the “body weight after irradiation” value is “reducing post-irradiation weight loss” and the “protection of the salivary gland” value is reported as “provided systemic protection”.
On to `COc1nc(N2CC(=O)N(S(=O)(=O)N(C)C)C(=O)C2)nc(OC)c1O` [JHX-8, 1-N,N′-dimethylsulfamoyl-4-(4,6-dimethoxy-5-hydroxy-2-pyrimidyl)piperazine-2,6-dione], for which, in data set [1], the “% Parent Peak Remaining at 10:1 Solution” value came to 8.2%. Besides, the “% Parent Peak Remaining at 10:1 Solution” value in data set [2] turned out to be 14.6%. The “% Parent Peak Remaining at 10:1 Solution” value in [3] was 100.0%. Besides, the “% Parent Peak Remaining at 10:1 Solution” value in data set [4] is reported as 100.0%. Moreover, the ion binding entry in [5] is recorded as “bind ions”. In addition, in data set [6], the “ROS staining, ROS generated by Fenton reaction” value is on record as “protected against ROS” and the “ROS staining, ROS initiated by homocysteine” value is “reduced ROS staining similar to that with Trolox”. Further, in data set [7], the blood sugar result is “did not alter”, the toxic effects result is reported as “No apparent toxic effects”, the “delay of vacuole formation” value is 11 days and the “delay of cortical cataracts” value was determined as 3 days. For the same compound, the lens sorbitol levels entry in [7] is recorded as “did not alter”. Besides, in [8], the “appearance of lens opacities” value is recorded as “delayed”, the “delay of lens PSC opacities” value came to 47 days, the “delay of the average (50% in all animals) formation of PSC punctuate opacities” value is 58 days and the toxic effects result is recorded as “No apparent toxic effects”. In [9], the “body weight after irradiation” value was “reducing post-irradiation weight loss” and the “protection of the salivary gland” value was “provided systemic protection”.
